Results from patent US9045482B2, “Pyrido[4,3-B]indoles and methods of use” (Medivation Technologies, Inc., priority 2009, dated 2015).

Experiments:
[1] = biological target: human recombinant histamine H1 receptor (Homo sapiens, UniProt P35367); assay: Histamine H1 radioligand binding ([3H]Pyrilamine); conditions: 1 μM; for inhibition at 1 µM: read-out: Binding data (Percentage Inhibition) Histamine Binding H1
Procedure: To evaluate in radioligand binding assays the activity of compounds of the invention, human recombinant histamine H1 receptor expressed in Chinese hamster ovary (CHO) cells [De Backer, M. et al., Biochem. Biophys. Res. Comm. (1993), 197(3):1601] in a modified Tris-HCl buffer (50 mM Tris-HCl, pH 7.4, 2 mM MgCl2, 100 mM NaCl, 250 mM Sucrose) was used. Compounds of the invention were incubated with 1.2 nM [^3H]Pyrilamine for 180 min at 25° C. Non-specific binding was estimated in the presence of 1 μM pyrilamine. Receptor proteins were filtered and washed, the filters were then counted to determine [^3H]Pyrilamine specifically bound. Compounds were screened at 1 μM or lower, using 1% DMSO as vehicle. Biochemical assay results are presented as the percent inhibition of specific binding in Table 2.

[2] = biological target: T1, human recombinant serotonin (5-Hydroxytryptamine) 5-HT6 receptor (Homo sapiens, UniProt P50406); assay: Serotonin 5-HT6 radioligand binding ([3H]LSD)
T1 construct: expressed in transfected cells; host or cells: human HeLa cells
T1 sequence (P50406 whole entry): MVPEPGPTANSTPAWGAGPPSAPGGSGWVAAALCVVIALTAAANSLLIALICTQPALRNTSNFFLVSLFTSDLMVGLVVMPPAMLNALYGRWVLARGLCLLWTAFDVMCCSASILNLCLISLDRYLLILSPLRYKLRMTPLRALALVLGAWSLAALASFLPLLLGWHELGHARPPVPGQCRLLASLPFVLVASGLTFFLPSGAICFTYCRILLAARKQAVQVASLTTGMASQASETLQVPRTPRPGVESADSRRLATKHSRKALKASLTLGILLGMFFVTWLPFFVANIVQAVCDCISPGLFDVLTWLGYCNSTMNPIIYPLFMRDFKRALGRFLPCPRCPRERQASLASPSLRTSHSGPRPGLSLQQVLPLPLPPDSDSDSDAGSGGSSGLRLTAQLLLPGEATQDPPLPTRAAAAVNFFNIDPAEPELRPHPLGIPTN
Procedure: Compounds of the invention were incubated with 1.5 nM [3H]Lysergic acid diethylamide (LSD) for 120 min at 37° C. […] Receptor proteins were filtered and washed, the filters were then counted to determine [3H]LSD specifically bound. Compounds were screened at 1 μM or lower, using 1% DMSO as vehicle. Biochemical assay results are presented as the percent inhibition of specific binding in Table 4.

[3] = biological target: T2, human recombinant serotonin (5-Hydroxytryptamine) 5-HT2A receptor (Homo sapiens, UniProt P28223); assay: Serotonin 5-HT2A radioligand binding ([3H]Ketanserin)
T2 construct: expressed in transfected cells; host or cells: Chinese hamster ovary (CHO-K1) cells
T2 sequence (P28223 whole entry): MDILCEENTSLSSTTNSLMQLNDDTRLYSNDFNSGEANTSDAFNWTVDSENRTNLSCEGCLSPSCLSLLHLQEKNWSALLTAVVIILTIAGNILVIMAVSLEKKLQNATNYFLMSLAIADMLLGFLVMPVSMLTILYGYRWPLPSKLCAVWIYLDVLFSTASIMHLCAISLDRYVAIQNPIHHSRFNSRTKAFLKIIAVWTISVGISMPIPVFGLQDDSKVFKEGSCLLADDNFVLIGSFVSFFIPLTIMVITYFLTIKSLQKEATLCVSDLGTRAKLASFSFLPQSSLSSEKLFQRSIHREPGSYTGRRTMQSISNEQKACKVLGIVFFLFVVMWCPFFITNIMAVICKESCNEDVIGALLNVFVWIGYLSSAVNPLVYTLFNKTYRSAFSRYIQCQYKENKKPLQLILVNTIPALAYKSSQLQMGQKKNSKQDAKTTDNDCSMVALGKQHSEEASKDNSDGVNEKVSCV
Procedure: (1997), 68:1998] in a 50 mM Tris-HCl buffer, pH 7.4, was used. Compounds of the invention were incubated with 0.5 nM [^3H]Ketanserin for 60 min at 25° C. Non-specific binding was estimated in the presence of 1 μM Mianserin. Receptor proteins were filtered and washed, the filters were then counted to determine [^3H]Ketanserin specifically bound. Compounds were screened at 1 μM or lower, using 1% DMSO as vehicle. Biochemical assay results are presented as the percent inhibition of specific binding in Table 4.

[4] = biological target: T3, human recombinant histamine H2 receptor (Homo sapiens, UniProt P25021); assay: Histamine H2 radioligand binding (Aminopotentidine); conditions: read-out: Binding data (Percentage Inhibition) Histamine Binding H2
T3 construct: expressed in transfected cells; host or cells: Chinese hamster ovary (CHO) K1 cells
T3 sequence (P25021 whole entry): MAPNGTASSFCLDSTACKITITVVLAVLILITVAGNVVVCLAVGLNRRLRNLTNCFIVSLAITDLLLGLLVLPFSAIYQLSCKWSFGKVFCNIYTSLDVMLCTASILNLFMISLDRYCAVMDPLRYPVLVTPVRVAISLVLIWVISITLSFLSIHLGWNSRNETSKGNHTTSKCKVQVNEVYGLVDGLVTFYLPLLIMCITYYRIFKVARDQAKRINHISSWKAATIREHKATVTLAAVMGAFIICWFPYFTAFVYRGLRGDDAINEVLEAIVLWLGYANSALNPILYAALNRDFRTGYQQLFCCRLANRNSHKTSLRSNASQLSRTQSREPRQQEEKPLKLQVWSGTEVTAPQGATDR
Procedure: To evaluate in radioligand binding assays the activity of compounds of the invention, human recombinant histamine H2 receptor expressed in Chinese hamster ovary (CHO) K1 cells [Ruat, M., Proc. Natl. Acad. Sci. USA. (1990), 87(5):1658] in a 50 mM Phosphate buffer, pH 7.4 was used. Compounds of the invention were incubated with 0.1 nM […] for 120 min at 25° C. Non-specific binding was estimated in the presence of 3 μM Tiotidine. Receptor proteins were filtered and washed, the filters were then counted to determine […] specifically bound. Compounds were screened at 1 μM or lower, using 1% DMSO as vehicle. Biochemical assay results are presented as the percent inhibition of specific binding in Table 2.

[5] = biological target: human recombinant dopamine D2L receptor (Homo sapiens, UniProt P14416); assay: Dopamine D2L radioligand binding ([3H]Spiperone)
human recombinant dopamine D2L receptor, sequence (P14416 whole entry): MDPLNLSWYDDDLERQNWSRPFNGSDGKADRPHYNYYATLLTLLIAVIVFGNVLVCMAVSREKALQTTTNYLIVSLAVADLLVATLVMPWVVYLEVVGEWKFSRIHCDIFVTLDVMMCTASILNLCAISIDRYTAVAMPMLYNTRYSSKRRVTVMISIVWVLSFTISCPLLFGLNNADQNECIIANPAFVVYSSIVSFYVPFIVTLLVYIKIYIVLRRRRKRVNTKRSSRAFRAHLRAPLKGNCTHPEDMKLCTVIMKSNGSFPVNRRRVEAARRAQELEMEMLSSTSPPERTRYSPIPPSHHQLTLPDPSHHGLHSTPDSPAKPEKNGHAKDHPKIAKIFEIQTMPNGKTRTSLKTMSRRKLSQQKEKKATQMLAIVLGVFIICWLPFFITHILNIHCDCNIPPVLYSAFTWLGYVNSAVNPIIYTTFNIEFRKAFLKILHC
Procedure: To evaluate in radioligand binding assays the activity of compounds of the invention, human recombinant dopamine D2L receptor expressed in Chinese hamster ovary (CHO) cells [Grandy, D. K. et al., Proc. Natl. Acad. Sci. USA. (1989), 86:9762; Hayes, G. et al., Mol. Endocrinol. […] Compounds of the invention were incubated with 0.16 nM [^3H]Spiperone for 120 min at 25° C. Non-specific binding was estimated in the presence of 10 μM Haloperidol. Receptor proteins were filtered and washed, the filters were then counted to determine [^3H]Spiperone specifically bound. Compounds were screened at 1 μM or lower, using 1% DMSO as vehicle. Biochemical assay results are presented as the percent inhibition of specific binding in Table 3.

[6] = biological target: T4, human recombinant serotonin (5-Hydroxytryptamine) 5-HT2C receptor (Homo sapiens, UniProt P28335); assay: Serotonin 5-HT2C radioligand binding ([3H]Mesulergine)
T4 construct: expressed in transfected cells; host or cells: Chinese hamster ovary (CHO-K1) cells
T4 sequence (P28335 33-458): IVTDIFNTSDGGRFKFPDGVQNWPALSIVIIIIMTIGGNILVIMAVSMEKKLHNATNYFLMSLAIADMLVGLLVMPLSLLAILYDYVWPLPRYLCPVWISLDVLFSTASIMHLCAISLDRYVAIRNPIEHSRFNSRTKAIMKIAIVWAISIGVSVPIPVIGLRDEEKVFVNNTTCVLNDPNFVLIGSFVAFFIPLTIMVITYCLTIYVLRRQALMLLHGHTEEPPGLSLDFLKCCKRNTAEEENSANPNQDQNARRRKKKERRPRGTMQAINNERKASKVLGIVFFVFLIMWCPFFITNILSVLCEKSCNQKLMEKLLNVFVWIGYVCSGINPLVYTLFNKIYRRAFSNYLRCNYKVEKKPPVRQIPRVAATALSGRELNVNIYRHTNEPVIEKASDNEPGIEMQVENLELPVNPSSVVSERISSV
Procedure: (1997), 69:1449] in a modified Tris-HCl buffer (50 mM Tris-HCl, pH 7.4, 0.1% Ascorbic Acid, 10 μM Pargyline) was used. Compounds of the invention were incubated with 1 nM [^3H]Mesulergine for 60 min at 25° C. Non-specific binding was estimated in the presence of 1 μM Mianserin. Receptor proteins were filtered and washed, the filters were then counted to determine [^3H]Mesulergine specifically bound. Compounds were screened at 1 μM or lower, using 1% DMSO as vehicle. Biochemical assay results are presented as the percent inhibition of specific binding in Table 4.

[7] = biological target: human recombinant serotonin (5-Hydroxytryptamine) 5-HT7 receptor (Homo sapiens, UniProt P34969); assay: Serotonin 5-HT7 radioligand binding ([3H]LSD)
human recombinant serotonin (5-Hydroxytryptamine) 5-HT7 receptor, sequence (P34969 whole entry): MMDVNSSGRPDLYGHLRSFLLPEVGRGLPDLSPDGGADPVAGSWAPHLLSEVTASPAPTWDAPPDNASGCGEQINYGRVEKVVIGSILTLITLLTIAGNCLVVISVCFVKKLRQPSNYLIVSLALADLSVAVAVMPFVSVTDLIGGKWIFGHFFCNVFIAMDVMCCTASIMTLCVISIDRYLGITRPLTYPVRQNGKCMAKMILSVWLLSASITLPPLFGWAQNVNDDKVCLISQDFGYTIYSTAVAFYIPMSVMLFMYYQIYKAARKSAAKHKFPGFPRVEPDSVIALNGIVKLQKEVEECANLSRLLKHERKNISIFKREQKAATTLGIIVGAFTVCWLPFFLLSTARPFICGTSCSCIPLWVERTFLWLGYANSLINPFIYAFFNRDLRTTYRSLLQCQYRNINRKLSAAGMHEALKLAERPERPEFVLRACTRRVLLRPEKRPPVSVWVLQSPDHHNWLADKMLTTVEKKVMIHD
Procedure: Compounds of invention were incubated with 5.5 nM [^3H]Lysergic acid diethylamide (LSD) for 2 h at 25° C. […] Receptor proteins were filtered and washed, the filters were then counted to determine [^3H]LSD specifically bound. Compounds were screened at 1 μM or lower, using 1% DMSO as vehicle. Biochemical assay results are presented as the percent inhibition of specific binding in Table 4.

human recombinant histamine H1 receptor, sequence (P35367 whole entry): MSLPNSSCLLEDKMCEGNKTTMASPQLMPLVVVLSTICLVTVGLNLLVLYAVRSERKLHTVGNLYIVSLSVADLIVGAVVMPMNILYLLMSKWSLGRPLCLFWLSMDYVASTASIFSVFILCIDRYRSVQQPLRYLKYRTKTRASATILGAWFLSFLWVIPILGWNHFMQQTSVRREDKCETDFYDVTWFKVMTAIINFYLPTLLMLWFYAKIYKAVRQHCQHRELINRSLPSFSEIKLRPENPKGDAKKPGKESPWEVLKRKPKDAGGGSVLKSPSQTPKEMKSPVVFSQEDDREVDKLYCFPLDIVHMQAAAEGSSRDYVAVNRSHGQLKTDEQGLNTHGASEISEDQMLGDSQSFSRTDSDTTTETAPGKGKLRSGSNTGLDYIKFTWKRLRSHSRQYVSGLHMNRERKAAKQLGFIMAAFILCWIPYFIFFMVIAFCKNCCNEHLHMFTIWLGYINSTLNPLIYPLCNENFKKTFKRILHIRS

| Structure (SMILES) | inhibition at 1 µM [1] [%] | Percent Inhibition of ligand binding Serotonin 5-HT6 ([2]; 1 μM ligand concentration) [%] | Percent Inhibition of ligand binding Serotonin 5-HT2A ([3]; 1 μM ligand concentration) [%] | inhibition at 1 µM [4] [%] | Percent Inhibition of ligand binding Dopamine D2L ([5]; 1 μM ligand conc.) [%] | Percent Inhibition of ligand binding Serotonin 5-HT2C ([6]; 1 μM ligand concentration) [%] | Percent Inhibition of ligand binding Serotonin 5-HT7 ([7]; 1 μM ligand concentration) [%] | Binding data (Percentage Inhibition) Histamine Binding H1 [1] [%] | Percent Inhibition of ligand binding Serotonin 5-HT6 ([2]; 0.1 μM ligand concentration) [%] | Percent Inhibition of ligand binding Serotonin 5-HT2A ([3]; 0.1 μM ligand concentration) [%] | Percent Inhibition of ligand binding Dopamine D2L ([5]; 0.1 μM ligand conc.) [%] | Percent Inhibition of ligand binding Serotonin 5-HT2C ([6]; 0.1 μM ligand concentration) [%] | Percent Inhibition of ligand binding Serotonin 5-HT7 ([7]; 0.1 μM ligand concentration) [%] |
| --- | --- | --- | --- | --- | --- | --- | --- | --- | --- | --- | --- | --- | --- |
| CC(=Cn1c2c(c3cc(C)ccc31)CN1CCCC1C2)c1ccc(F)cc1 (stereo in doubt) [Compound 3, (E)-10-(2-(4-fluorophenyl)prop-1-enyl)-7-methyl-2,3,5,10,11,11a-hexahydro-1H-indolizino [7,6-b]indole] | 88 | 101 | 90 | 97 | 11 | 99 | 94 | – | – | – | – | – | – |
| CC(=Cn1c2c(c3cc(C)ccc31)C1CCCN1CC2)c1ccc(F)cc1 (stereo in doubt) [Compound 4, (E)-7-(2-(4-fluorophenyl)prop-1-enyl)-10-methyl-2,3,5,6,7,11c-hexahydro-1H-indolizino[7,8-b]indole] | 41 | 103 | 99 | 75 | 90 | 99 | 101 | 53 | 100 | 87 | 59 | 88 | – |
| CC(=Cn1c2c(c3cc(C)ccc31)CN1CCCCC1C2)c1ccc(F)cc1 (stereo in doubt) [Compound 5, (E)-5-(2-(4-fluorophenyl)prop-1-enyl)-2-methyl-5,6,6a,7,8,9,10,12-octahydroindolo[2,3-b]quinolizine] | 76 | 96 | 98 | 97 | 28 | 92 | 97 | – | – | – | – | – | – |
| CC(=Cn1c2c(c3cc(C)ccc31)C1CCCCN1CC2)c1ccc(F)cc1 (stereo in doubt) [Compound 6, (E)-8-(2-(4-fluorophenyl)prop-1-enyl)-11-methyl-1,2,3,4,6,7,8,12c-octahydroindolo[3,2-a]quinolizine] | 28 | 105 | 99 | 67 | 94 | 94 | 92 | – | – | – | – | – | – |
| FC(F)(F)c1ccc(CCn2c3c(c4cccnc42)CN2CCCC2C3)cn1 (stereo not drawn) [Compound 39, 11-(2-(6-(trifluoromethyl)pyridin-3-yl)ethyl)-7,8,9,9a,10,11-hexahydro-5H-pyrido[3′,2′:4,5]pyrrolo[3,2-f]indolizine] | – | – | – | – | – | – | – | – | −5 | 24 | – | – | 2 |
| FC(F)(F)c1ccc(CCn2c3c(c4cccnc42)C2CCCN2CC3)cn1 (stereo not drawn) [Compound 40, 7-(2-(6-(trifluoromethyl)pyridin-3-yl)ethyl)-2,3,5,6,7,11c-hexahydro-1H-pyrido[3′,2′:4,5]pyrrolo[2,3-g]indolizine] | – | – | – | – | – | – | – | – | 1 | 6 | – | – | 10 |
| Cc1cnc2c(c1)c1c(n2CCc2ccc(C(F)(F)F)nc2)CCN2CCCC12 (stereo not drawn) [Compound 43, 10-methyl-7-(2-(6-(trifluoromethyl)pyridin-3-yl)ethyl)-2,3,5,6,7,11c-hexahydro-1H-pyrido[3′,2′:4,5]pyrrolo[2,3-g]indolizine] | – | – | – | – | – | – | – | – | 5 | 7 | – | – | 22 |
| Cc1cnc2c(c1)c1c(n2CCc2ccc(C(F)(F)F)nc2)CC2CCCN2C1 (stereo not drawn) [Compound 44, 3-methyl-11-(2-(6-(trifluoromethyl)pyridin-3-yl)ethyl)-7,8,9,9a,10,11-hexahydro-5H-pyrido[3′,2′:4,5]pyrrolo[3,2-f]indolizine] | – | – | – | – | – | – | – | – | 9 | 65 | – | – | 24 |
